From publication PMC8838850, “Synthesis, Antimicrobial, Anti-Virulence and Anticancer Evaluation of New 5(4H)-Oxazolone-Based Sulfonamides” (Molecules, 2022)
Values after ≈ are worked out from the molar mass of the structure shown.

Assays:
[1] = system: Salmonella typhimurium ATCC 14028; assay: MIC by agar dilution; assay type: cell-based; conditions: Salmonella enterica, 37 °C, 20 h, read-out: Minimum inhibitory concentration (MIC)
Description: (§1) The MICs of the synthesized compound were determined by agar dilution method according to the Clinical Laboratory and Standards Institute Guidelines (CLSI, 2015). Briefly, the tested strains were incubated overnight in tryptic soy broth (TSB) (Oxoid, United Kingdom) and then diluted in Muller–Hinton (MH) broth (Oxoid, United Kingdom) to turbidity approximating to the equivalent of 0.5 McFarland standard. The suspensions were further diluted with sterile saline (1:10) and standardized inoculums (approximately 10^4 CFU per spot) were spotted on the surfaces of MH agar (Oxoid, United Kingdom) plates containing different concentrations of tested compounds and a control plate. The MICs were the lowest concentrations that inhibit growth on the plates after incubation at 37 °C for 20 h.

[2] = system: Staphylococcus epidermidis ATCC 12228; assay: MIC by agar dilution; assay type: cell-based; conditions: ATCC12228, 37 °C, 20 h, read-out: Minimum inhibitory concentration (MIC)
Description: as §1

[3] = system: Klebsiella pneumoniae ATCC 27736; assay: MIC by agar dilution; assay type: cell-based; conditions: ATCC27736, 37 °C, 20 h, read-out: Minimum inhibitory concentration (MIC)
Description: as §1

[4] = system: Escherichia coli ATCC 10536; assay: MIC by agar dilution; assay type: cell-based; conditions: ATCC10536, 37 °C, 20 h, read-out: Minimum inhibitory concentration (MIC)
Description: as §1

[5] = system: Micrococcus spp. ATCC 10240; assay: MIC by agar dilution; assay type: cell-based; conditions: ATCC10240, 37 °C, 20 h, read-out: Minimum inhibitory concentration (MIC)
Description: as §1

[6] = system: Staphylococcus aureus ATCC 6538; assay: MIC by agar dilution; assay type: cell-based; conditions: ATCC6538, 37 °C, 20 h, read-out: Minimum inhibitory concentration (MIC)
Description: as §1

[7] = system: Pseudomonas aeruginosae ATCC 47085; assay: MIC by agar dilution; assay type: cell-based, Pseudomonas aeruginosa; conditions: ATCC47085, 37 °C, 20 h, read-out: Minimum inhibitory concentration (MIC)
Description: as §1

[8] = system: Aspergillus niger ATCC 16404; assay: MIC by agar dilution (antifungal); assay type: cell-based; conditions: ATCC16404, read-out: Minimum inhibitory concentration (MIC)
Description: as §1

[9] = system: Candida albicans ATCC 10231; assay: MIC by agar dilution (antifungal); assay type: cell-based; conditions: Candida albicans, ATCC10231, Candida albicans ATCC 10231, read-out: Minimum inhibitory concentration (MIC)
Description: as §1

[10] = system: Panc-1; assay: SRB cellular proliferation assay; assay type: cell-based, human; conditions: Homo sapiens, Panc-1 cells, mean ± SD (n = 3), read-out: IC50
Description: (§2) The pancreatic human cancer cell lines BxPC-3 and Panc-1, the human hepatocellular carcinoma (HepG-2), and the normal immortalized pancreatic cell line HPDE, that were used in this study, were obtained from the American Type Culture Collection (Rockville, USA). Cell lines were cultured and treated with the tested compounds or dimethyl sulfoxide (DMSO) as previously described. Cells were cultivated in DMEM medium (Invitrogen, Carlsbad, CA, USA), supplemented with streptomycin, penicillin and fetal bovine serum (FCS) (Invitrogen, Carlsbad, CA, USA). The sulforhodamine B (SRB) assay was employed to assess the anti-proliferative effects of tested compounds on cancer cells. Cell lines were incubated and regularly treated with DMSO or increasing doses of tested compounds for 48 h. The cells were fixed with 10% trichloroacetic acid and stained with SRB fluorescent dye for 30 min. Then, the bounded SRB dye to cellular proteins was dissolved in 10 mM Tris base after washing excess dye with 1% acetic acid. The absorbance was measured at 510 nm in a reader (Biotek, Winooski, VT, USA).

[11] = system: BxPC-3; assay: SRB cellular proliferation assay; assay type: cell-based, human; conditions: Homo sapiens, BxPC-3 cells, mean ± SD (n = 3), read-out: IC50
Description: as §2

[12] = system: HepG-2; assay: SRB cellular proliferation assay; assay type: cell-based, human; conditions: Homo sapiens, HepG2, HepG-2 cells, mean ± SD (n = 3), read-out: IC50
Description: as §2

[13] = system: P. aeruginosa ATCC 47,085; assay: Biofilm formation assay (crystal violet, light microscopy); assay type: cell-based, Pseudomonas aeruginosa; conditions: sub-MIC, light microscopy image
Description: (§3) Bacterial virulence is regulated via a quorum sensing (QS) system in an inducer/receptor manner. Diminishing bacterial virulence is an advantageous strategy to decrease the development of bacterial resistance. In this direction, anti-virulence and anti-QS activities have been explored in several studies as reviewed. The ability of P. aeruginosa or S. aureus to form biofilms was assayed in the absence or presence of tested compounds at sub-MIC. […] The experiment was conducted in triplicate and a one-way ANOVA test was employed to test the statistical significance using Graphpad Prism 8 software. The results were significant statistically where p values < 0.05. Moreover, microscopic visualization of biofilm under the effect of tested compounds was also performed by light microscopy. Representative images for the inhibitory effects on S. aureus and P. aeruginosa biofilm formation are shown (Figure 3C,D). The microscopic images show a marked reduction in both the thickness of and surface area covered by the biofilms in presence of the tested compound.
(§4) In order to evaluate the ability of the tested compounds to inhibit the biofilm formation, a strong biofilm forming P. aeruginosa ATCC 47,085 [47, 66] and S. aureus ATCC 6538 [67] strains were used. As described earlier, suspensions of tested strains were prepared from overnight cultures in TSB and their optical densities were adjusted to OD600 of 0.4 (1×10^8 CFU/mL). Aliquots of 10 μL of the suspensions were added to 1 mL amounts of fresh TSB with or without sub-MICs of tested compounds. […] The non-adherent cells were removed, the wells were washed with sterile PBS, and left to dry. The attached biofilm forming cells were fixed with methanol for 25 min and stained with 1% crystal violet for 30 min. The excess dye was washed out and the crystal violet staining adhered biofilm forming cells were eluted by glacial acetic acid (33%). The experiment was conducted in triplicate and the absorbance was measured at 590 nm. The absorbances of tested strains treated with different compounds were expressed as mean ± standard error of percentage change from untreated tested strains control. The percentages of biofilm inhibition were calculated employing the following formula: (absorbance of control—absorbance in presence of tested compounds)/absorbance of control.

[14] = system: S. aureus ATCC 6538; assay: as above; assay type: cell-based, Staphylococcus aureus; conditions: sub-MIC, light microscopy image
Description: as §3, §4

| MIC [1] [µg/mL] | MIC [2] [µg/mL] | MIC [3] [µg/mL] | MIC [4] [µg/mL] | MIC [5] [µg/mL] | MIC [6] [µg/mL] | MIC [7] [µg/mL] | MIC [8] [µg/mL] | MIC [9] [µg/mL] | IC50 [10] [µg/mL] | IC50 [11] [µg/mL] | melting point [°C] | Structure (SMILES) | IC50 [12] [µg/mL] | Biofilm formation, microscopic visualization [13] | Biofilm formation, microscopic visualization [14] |
| --- | --- | --- | --- | --- | --- | --- | --- | --- | --- | --- | --- | --- | --- | --- | --- |
| 1 (≈ 2.74 µM) | 0.5 (≈ 1.37 µM) | 1 (≈ 2.74 µM) | 0.5 (≈ 1.37 µM) | 0.25 (≈ 0.684 µM) | 0.5 (≈ 1.37 µM) | 2 (≈ 5.47 µM) |  |  |  |  |  | CC1(C)S[C@@H]2[C@H](NC(=O)[C@H](N)c3ccc(O)cc3)C(=O)N2[C@H]1C(=O)O [Amoxycillin, reference compound] |  |  |  |
| 1 (≈ 2.2 µM) | 0.25 (≈ 0.549 µM) | 0.5 (≈ 1.1 µM) | 0.125 (≈ 0.274 µM) | 0.25 (≈ 0.549 µM) | 0.5 (≈ 1.1 µM) | 1 (≈ 2.2 µM) |  |  |  |  |  | CO/N=C(\C(=O)N[C@@H]1C(=O)N2C(C(=O)O)=C(COC(C)=O)CS[C@H]12)c1csc(N)n1 [Cefotaxime, reference compound] |  |  |  |
| 8 (≈ 16.7 µM) | 4 (≈ 8.36 µM) | 8 (≈ 16.7 µM) | 4 (≈ 8.36 µM) | 4 (≈ 8.36 µM) | 8 (≈ 16.7 µM) | 16 (≈ 33.4 µM) | 8 (≈ 16.7 µM) | 4 (≈ 8.36 µM) | 15.1 ± 4.13 (≈ 31.6 µM) | 21.5 ± 1.08 (≈ 44.9 µM) | 220 to 222 | COc1ccc(OC)c(/C=C2/N=C(c3ccccc3NS(=O)(=O)c3ccc(C)cc3)OC2=O)c1 [Compound 9c, (E)-N-(2-(4-(2,5-diMethoxybenzylidene)-5-oxo-4,5-dihydrooxazol-2-yl)phenyl)-4-methylbenzenesulfonamide] | 19.1 ± 3.23 (≈ 39.9 µM) |  |  |
| 16 (≈ 31.5 µM) | 2 (≈ 3.93 µM) | 16 (≈ 31.5 µM) | 4 (≈ 7.87 µM) | 2 (≈ 3.93 µM) | 4 (≈ 7.87 µM) | 32 (≈ 62.9 µM) | > 32 | > 32 | 25.3 ± 1.91 (≈ 49.8 µM) | 18.1 ± 3.56 (≈ 35.5 µM) | 230 to 232 | COc1cc(/C=C2/N=C(c3ccccc3NS(=O)(=O)c3ccc(C)cc3)OC2=O)cc(OC)c1OC [Compound 9d, (E)-4-Methyl-N-(2-(5-oxo-4-(3,4,5-trimethoxybenzylidene)-4,5-dihydrooxazol-2-yl)phenyl)be-nzenesulfonamide] | 22.7 ± 2.3 (≈ 44.7 µM) |  |  |

| Structure (SMILES) | MIC [1] [µg/mL] | MIC [2] [µg/mL] | MIC [3] [µg/mL] | MIC [4] [µg/mL] | MIC [5] [µg/mL] | MIC [6] [µg/mL] | MIC [7] [µg/mL] | MIC [8] [µg/mL] | MIC [9] [µg/mL] | IC50 [10] [µg/mL] | IC50 [11] [µg/mL] | melting point [°C] | IC50 [12] [µg/mL] | Biofilm formation, microscopic visualization [13] | Biofilm formation, microscopic visualization [14] |
| --- | --- | --- | --- | --- | --- | --- | --- | --- | --- | --- | --- | --- | --- | --- | --- |
| Cc1ccc(S(=O)(=O)Nc2ccccc2C2=N/C(=C/c3ccc(Cl)cc3)C(=O)O2)cc1 [Compound 9e, (E)-N-(2-(4-(4-Chlorobenzylidene)-5-oxo-4,5-dihydrooxazol-2-yl)phenyl)-4-methylbenzenesulfonamide] | 4 (≈ 8.83 µM) | 2 (≈ 4.42 µM) | 2 (≈ 4.42 µM) | 4 (≈ 8.83 µM) | 2 (≈ 4.42 µM) | 2 (≈ 4.42 µM) | 8 (≈ 17.7 µM) | 16 (≈ 35.3 µM) | 8 (≈ 17.7 µM) | 12.2 ± 1.29 (≈ 26.8 µM) | 13.3 ± 1.57 (≈ 29.3 µM) | 234 to 236 | 15 ± 2.89 (≈ 33.2 µM) | markedly reduced | markedly reduced |
